Laboratory results as given in patent publication US20110280812A1, “FLAVOR-ENHANCING AMIDE COMPOUNDS” (priority 2010, published 2011).

Key:
trained sensory panel [1] = experiment: Sensory panel evaluation of MSG (0.02%) combined with Formula II; assay type: in vivo
Method: The flavor compositions of MSG (0.02%) combined with (2E,4E)-N-phenethylundeca-2,4-dien-8,10-diynamide (Formula II) at different concentrations were evaluated by a trained sensory panel using an intensity scale of 0 to 5, where 0=none, 1=minimal, 3=moderate, and 5=intense. Averaged sensory scores were reported in the following: […]

trained sensory panel [2] = experiment: Sensory panel evaluation of MSG-IMP mixture combined with Formulas II-IV; assay type: in vivo; settings: 0.01% MSG and 0.005% IMP; for effect on umami flavor of the MSG-IMP mixture: summary, no concentration stated
Text: The MSG-inosine monophosphate (IMP) mixture (0.01% MSG and 0.005% IMP), an umami composition, was combined with Formulas II-IV at different concentrations and evaluated by a trained sensory panel.

Structure (SMILES) | effect on umami flavor of MSG (trained sensory panel [1]; summary over the concentrations tested) | Flavor Profile: effect on umami flavor of the MSG-IMP mixture (trained sensory panel [2]; amide at 500 ppb) | effect on umami flavor of the MSG-IMP mixture (trained sensory panel [2]) | Flavor Profile (trained sensory panel [1]; Formula II 0) | Flavor Intensity (trained sensory panel [1]; Formula II 0, averaged sensory score, scale 0 to 5 (0=none, 1=minimal, 3=moderate, 5=intense))
C#CC#CCC/C=C/C=C/C(=O)NCCc1ccccc1 [Formula II, (2E,4E)-N-phenethylundeca-2,4-dien-8,10-diynamide] | enhanced the umami flavor of MSG | strongest enhancement | enhanced the umami flavor of the MSG-IMP mixture | – | –
N[C@@H](CCC(=O)O)C(=O)[O-].[Na+] [MSG, monosodium glutamate] | – | – | – | umami | 1.0
C#CC#CCC/C=C/C=C/C(=O)NCC(C)CC (stereo not drawn) [Formula IV, (2E,4E)-N-(2-methylbutyl)undeca-2,4-dien-8,10-diynamide] | – | – | enhanced the umami flavor of the MSG-IMP mixture | – | –
